Tests used:
Assay in all cases: Binding assay
Details in all cases: smilagenin 1 μM
[1] = target: Opiate δ (OP1, DOP) (Homo sapiens, UniProt P41143)
Procedure: (§1) The receptor binding was investigated using the following method: Sarsasapogenin was incubated with tissue or cell homogenate that expressed the receptor of interest and a known concentration a radiolabelled compound with affinity for the receptor of interest. After the incubation period the non-bound radiolabelled compound was removed and the amount of specific binding was quantified. The amount of specific binding in the presence and absence of sarsasapogenin were compared and the percent inhibition of the binding of the radiolabelled compound by sarsasapogenin was calculated. The source of the receptor, the incubation conditions, the radiolabelled compound used varied depending on each specific assay.
(§2) Using the same methods as described above, the binding of smilagenin (1 μM) to the receptors listed in Table 2 below, and the effect of smilagenin on the activity of the enzymes listed in Table 2 below, were investigated.

[2] = target: Angiotensin AT1 (Homo sapiens, UniProt P30556)
Procedure: as §1, §2

[3] = target: Bombesin BB3 (Homo sapiens, UniProt P32247)
Procedure: as §1, §2

[4] = target: Adrenergic α2A (Homo sapiens, UniProt P08913)
Procedure: as §1, §2

[5] = target: Bombesin BB1 (Homo sapiens, UniProt P28336)
Procedure: as §1, §2

[6] = target: Bradykinin B1 (Homo sapiens, UniProt P46663)
Procedure: as §1, §2

[7] = target: Angiotensin AT2 (Homo sapiens, UniProt P50052)
Procedure: as §1, §2

[8] = target: T1, Histamine H1 (Homo sapiens, UniProt P35367)
T1 construct: host or cells: tissue or cell homogenate (not specified)
Procedure: as §1, §2

[9] = target: Neuropeptide Y Y1 (Homo sapiens, UniProt P25929)
Procedure: as §1, §2

[10] = target: T2, GABAB1A (Homo sapiens, UniProt Q9UBS5)
T2 construct: host or cells: tissue or cell homogenate (not specified)
Procedure: as §1, §2

[11] = target: APJ (Homo sapiens, UniProt P35414)
Procedure: as §1, §2

[12] = target: Retanoid X Receptor RXRα (Homo sapiens, UniProt P19793)
Procedure: as §1, §2

[13] = target: T3, Galanin GAL2 (Homo sapiens, UniProt O43603)
T3 construct: host or cells: tissue or cell homogenate (not specified)
Procedure: as §1, §2

[14] = target: Leptin (Mus musculus, UniProt P48356)
Procedure: as §1, §2

[15] = target: Tachykinin NK3 (Homo sapiens, UniProt P29371)
Procedure: as §1, §2

[16] = target: Melanocortin MC1 (Homo sapiens, UniProt Q01726)
Procedure: as §1, §2

[17] = system: Purinergic P2X
Procedure: as §1, §2

[18] = target: T4, Vitamin D3 (Homo sapiens, UniProt P11473)
T4 construct: host or cells: tissue or cell homogenate, not specified
Procedure: as §1, §2

[19] = target: T5, Muscarinic M3 (Homo sapiens, UniProt P20309)
T5 construct: host or cells: tissue or cell homogenate, not specified
Procedure: as §1, §2

[20] = target: Endothelin ETB (Homo sapiens, UniProt P24530)
Procedure: as §1, §2

[21] = system: Colchicine
Procedure: as §1, §2

[22] = target: Adensonine A1 (Homo sapiens, UniProt P30542)
Procedure: as §1, §2

[23] = target: Neurotensin NT1 (Homo sapiens, UniProt P30989)
Procedure: as §1, §2

[24] = target: Chemokine CCR1 (Homo sapiens, UniProt P32246)
Procedure: as §1, §2

[25] = target: Opiate μ (OP3, MOP) (Homo sapiens, UniProt P35372)
Procedure: as §1, §2

[26] = target: Adrenergic α1D (Homo sapiens, UniProt P25100)
Procedure: as §1, §2

[27] = target: Androgen (testosterone) AR (Rattus norvegicus, UniProt P15207)
Procedure: as §1, §2

[28] = target: T6, Oestrogen (Erβ) (Homo sapiens, UniProt Q92731)
T6 construct: host or cells: tissue or cell homogenate (not specified)
Procedure: as §1, §2

[29] = target: Melanocortin MC5 (Homo sapiens, UniProt P33032)
Procedure: as §1, §2

[30] = target: Transporter, Dopamine (DAT) (Homo sapiens, UniProt Q01959)
Procedure: as §1, §2

[31] = target: Calcitonin Gene-Related Peptide CGRP1 (Homo sapiens, UniProt O60894+Q16602)
Procedure: as §1, §2

[32] = target: Adensonine A2A (Homo sapiens, UniProt P29274)
Procedure: as §1, §2

[33] = target: Interleukin IL-1 (Mus musculus, UniProt P13504)
Procedure: as §1, §2

[34] = target: Sigma σ1 (Homo sapiens, UniProt Q99720)
Procedure: as §1, §2

[35] = target: Adrenomedullin AM1 (Homo sapiens, UniProt O60895+Q16602)
Procedure: as §1, §2

[36] = target: Ryanodine RyR3 (Rattus norvegicus, UniProt A0ABK0LPH6)
Procedure: as §1, §2

[37] = target: Adrenergic β3 (Homo sapiens, UniProt P13945)
Procedure: as §1, §2

Opiate δ (OP1, DOP), sequence (P41143 whole entry): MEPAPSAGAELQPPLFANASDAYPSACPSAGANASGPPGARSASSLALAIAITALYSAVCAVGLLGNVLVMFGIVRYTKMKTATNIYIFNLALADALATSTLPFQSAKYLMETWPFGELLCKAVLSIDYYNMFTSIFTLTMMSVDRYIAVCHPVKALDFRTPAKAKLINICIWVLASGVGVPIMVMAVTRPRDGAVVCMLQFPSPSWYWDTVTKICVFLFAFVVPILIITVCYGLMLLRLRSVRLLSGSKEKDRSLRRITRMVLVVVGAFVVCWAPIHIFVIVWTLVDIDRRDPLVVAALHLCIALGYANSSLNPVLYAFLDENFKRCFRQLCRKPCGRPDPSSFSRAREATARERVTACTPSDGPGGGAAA
Bombesin BB1, sequence (P28336 whole entry): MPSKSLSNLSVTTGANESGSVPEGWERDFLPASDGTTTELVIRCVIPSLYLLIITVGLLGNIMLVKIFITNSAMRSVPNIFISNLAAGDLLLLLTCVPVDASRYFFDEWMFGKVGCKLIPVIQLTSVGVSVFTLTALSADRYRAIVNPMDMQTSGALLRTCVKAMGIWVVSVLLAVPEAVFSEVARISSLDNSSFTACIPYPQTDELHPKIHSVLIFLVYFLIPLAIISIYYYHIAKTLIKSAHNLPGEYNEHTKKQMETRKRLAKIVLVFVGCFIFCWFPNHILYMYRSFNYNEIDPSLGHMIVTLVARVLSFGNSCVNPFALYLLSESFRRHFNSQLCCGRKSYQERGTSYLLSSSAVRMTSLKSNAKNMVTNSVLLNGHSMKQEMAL
Tachykinin NK3, sequence (P29371 whole entry): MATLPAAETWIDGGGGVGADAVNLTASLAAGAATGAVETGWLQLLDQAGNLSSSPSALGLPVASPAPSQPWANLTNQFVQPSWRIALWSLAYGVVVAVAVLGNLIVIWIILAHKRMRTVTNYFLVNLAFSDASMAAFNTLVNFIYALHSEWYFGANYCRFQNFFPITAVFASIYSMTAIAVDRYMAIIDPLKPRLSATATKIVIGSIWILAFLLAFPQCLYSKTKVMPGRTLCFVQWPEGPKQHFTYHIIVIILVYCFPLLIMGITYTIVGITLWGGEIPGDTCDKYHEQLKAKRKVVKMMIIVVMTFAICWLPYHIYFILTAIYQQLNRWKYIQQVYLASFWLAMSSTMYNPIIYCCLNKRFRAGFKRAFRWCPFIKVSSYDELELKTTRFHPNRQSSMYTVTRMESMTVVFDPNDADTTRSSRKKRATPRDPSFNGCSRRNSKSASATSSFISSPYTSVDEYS
Transporter, Dopamine (DAT), sequence (Q01959 whole entry): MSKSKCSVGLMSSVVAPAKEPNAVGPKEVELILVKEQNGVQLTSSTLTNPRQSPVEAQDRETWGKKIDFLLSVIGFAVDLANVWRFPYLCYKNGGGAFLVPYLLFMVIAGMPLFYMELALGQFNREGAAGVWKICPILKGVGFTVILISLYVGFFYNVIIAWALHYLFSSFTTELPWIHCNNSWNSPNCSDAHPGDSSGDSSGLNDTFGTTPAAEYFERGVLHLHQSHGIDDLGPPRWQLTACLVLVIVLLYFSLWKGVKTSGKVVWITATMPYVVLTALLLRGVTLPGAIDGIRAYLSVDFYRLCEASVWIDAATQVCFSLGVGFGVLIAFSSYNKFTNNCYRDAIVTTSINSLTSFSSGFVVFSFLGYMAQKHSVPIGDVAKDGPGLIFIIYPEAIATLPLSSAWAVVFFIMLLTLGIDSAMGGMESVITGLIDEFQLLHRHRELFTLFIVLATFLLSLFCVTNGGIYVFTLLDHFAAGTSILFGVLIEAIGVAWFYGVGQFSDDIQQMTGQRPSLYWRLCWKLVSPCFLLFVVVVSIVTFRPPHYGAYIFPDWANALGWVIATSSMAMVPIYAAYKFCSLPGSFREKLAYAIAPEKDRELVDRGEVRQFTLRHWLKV
Adrenergic α2A, sequence (P08913 whole entry): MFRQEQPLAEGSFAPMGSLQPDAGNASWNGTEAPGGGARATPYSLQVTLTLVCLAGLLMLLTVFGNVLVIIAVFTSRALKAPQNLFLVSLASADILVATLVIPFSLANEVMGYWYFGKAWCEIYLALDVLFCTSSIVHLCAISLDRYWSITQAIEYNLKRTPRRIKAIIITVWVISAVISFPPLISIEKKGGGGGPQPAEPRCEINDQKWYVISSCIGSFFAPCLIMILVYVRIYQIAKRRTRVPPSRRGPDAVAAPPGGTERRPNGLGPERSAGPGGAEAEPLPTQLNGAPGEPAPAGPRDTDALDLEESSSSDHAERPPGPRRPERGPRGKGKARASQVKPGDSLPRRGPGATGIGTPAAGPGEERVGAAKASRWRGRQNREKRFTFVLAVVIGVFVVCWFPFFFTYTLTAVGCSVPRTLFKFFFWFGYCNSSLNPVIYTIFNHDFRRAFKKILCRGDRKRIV
Bradykinin B1, sequence (P46663 whole entry): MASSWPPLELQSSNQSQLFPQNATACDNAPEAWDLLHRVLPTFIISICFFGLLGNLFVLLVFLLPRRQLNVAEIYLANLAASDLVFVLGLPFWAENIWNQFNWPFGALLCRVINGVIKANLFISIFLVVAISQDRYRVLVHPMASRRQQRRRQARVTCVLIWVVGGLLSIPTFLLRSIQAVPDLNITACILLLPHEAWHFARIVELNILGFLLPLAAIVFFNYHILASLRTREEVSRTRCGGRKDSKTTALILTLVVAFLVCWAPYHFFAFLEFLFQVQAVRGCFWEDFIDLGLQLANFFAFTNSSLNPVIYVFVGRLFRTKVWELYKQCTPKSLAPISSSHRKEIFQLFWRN
Adrenergic α1D, sequence (P25100 whole entry): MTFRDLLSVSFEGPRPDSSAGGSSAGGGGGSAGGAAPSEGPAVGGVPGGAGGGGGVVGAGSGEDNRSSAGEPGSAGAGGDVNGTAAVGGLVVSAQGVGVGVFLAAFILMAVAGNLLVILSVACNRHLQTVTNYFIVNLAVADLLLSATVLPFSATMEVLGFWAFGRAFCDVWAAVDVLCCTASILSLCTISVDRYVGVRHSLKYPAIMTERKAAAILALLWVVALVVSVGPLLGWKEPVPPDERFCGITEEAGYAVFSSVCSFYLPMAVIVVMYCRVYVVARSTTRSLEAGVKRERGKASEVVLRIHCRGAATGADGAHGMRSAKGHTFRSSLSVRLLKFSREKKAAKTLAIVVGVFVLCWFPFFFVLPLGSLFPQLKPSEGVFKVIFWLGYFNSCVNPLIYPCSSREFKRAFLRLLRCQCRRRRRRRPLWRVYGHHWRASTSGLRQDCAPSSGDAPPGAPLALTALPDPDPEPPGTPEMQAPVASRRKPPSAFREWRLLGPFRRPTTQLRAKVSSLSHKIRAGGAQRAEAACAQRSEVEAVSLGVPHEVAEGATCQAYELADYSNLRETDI
Opiate μ (OP3, MOP), sequence (P35372 whole entry): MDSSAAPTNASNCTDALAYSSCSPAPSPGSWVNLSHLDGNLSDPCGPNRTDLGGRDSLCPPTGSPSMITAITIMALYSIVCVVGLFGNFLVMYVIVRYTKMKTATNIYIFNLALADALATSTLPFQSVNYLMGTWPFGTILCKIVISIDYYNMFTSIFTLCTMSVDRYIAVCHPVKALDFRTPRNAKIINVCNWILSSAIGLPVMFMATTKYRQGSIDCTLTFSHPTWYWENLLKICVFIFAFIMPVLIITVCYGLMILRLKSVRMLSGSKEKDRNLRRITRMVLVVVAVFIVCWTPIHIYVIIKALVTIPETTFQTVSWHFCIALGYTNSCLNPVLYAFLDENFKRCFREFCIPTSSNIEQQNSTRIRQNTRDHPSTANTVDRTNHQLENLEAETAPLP
Retanoid X Receptor RXRα, sequence (P19793 whole entry): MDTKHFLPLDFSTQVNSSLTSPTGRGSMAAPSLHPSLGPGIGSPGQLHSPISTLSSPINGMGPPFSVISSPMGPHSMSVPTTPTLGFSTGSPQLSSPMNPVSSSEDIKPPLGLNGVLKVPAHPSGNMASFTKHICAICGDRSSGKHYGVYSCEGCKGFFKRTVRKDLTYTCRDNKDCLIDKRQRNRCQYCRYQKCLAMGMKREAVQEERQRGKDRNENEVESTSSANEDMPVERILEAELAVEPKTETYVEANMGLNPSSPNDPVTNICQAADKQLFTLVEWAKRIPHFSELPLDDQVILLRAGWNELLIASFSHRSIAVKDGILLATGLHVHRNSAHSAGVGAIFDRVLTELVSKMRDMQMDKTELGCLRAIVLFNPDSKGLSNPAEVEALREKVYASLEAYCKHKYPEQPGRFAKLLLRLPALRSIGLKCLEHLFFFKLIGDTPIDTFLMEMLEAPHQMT
T5 sequence (P20309 whole entry): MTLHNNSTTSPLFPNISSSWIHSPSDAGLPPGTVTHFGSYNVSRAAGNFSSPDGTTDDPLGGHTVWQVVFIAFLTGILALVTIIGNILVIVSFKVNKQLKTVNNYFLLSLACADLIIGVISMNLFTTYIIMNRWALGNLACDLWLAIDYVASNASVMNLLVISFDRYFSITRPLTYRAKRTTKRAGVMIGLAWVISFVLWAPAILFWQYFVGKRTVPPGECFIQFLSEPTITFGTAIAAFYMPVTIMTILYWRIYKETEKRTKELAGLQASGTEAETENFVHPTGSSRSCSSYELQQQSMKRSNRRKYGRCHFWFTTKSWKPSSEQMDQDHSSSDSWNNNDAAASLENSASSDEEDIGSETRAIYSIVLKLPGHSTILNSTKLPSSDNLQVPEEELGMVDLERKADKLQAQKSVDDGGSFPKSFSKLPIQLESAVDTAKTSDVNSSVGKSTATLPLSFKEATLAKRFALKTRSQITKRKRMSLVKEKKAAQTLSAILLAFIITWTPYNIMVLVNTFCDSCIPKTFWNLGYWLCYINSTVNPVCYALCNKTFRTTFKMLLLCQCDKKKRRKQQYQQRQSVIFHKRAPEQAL
Sigma σ1, sequence (Q99720 whole entry): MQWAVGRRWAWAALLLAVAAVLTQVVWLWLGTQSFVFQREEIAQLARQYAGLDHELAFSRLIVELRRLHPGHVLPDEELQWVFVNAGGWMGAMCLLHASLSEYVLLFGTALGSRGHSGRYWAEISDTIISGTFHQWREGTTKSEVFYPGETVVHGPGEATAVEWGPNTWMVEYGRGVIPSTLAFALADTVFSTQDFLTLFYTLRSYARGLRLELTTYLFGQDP

Which “Effect (%)” value [1] does the source give for `C[C@@H]1CC[C@@]2(OC1)O[C@H]1C[C@H]3[C@@H]4CC[C@@H]5C[C@@H](O)CC[C@]5(C)[C@H]4CC[C@]3(C)[C@H]1[C@@H]2C` [Smilagenin, smilagenin] here?
The value was “NS (NS = No significant response. Significance was taken as ≧30% stimulation or inhibition)”.

What about the “Effect (%)” value [2] of the same compound?
Its value is “NS (NS = No significant response. Significance was taken as ≧30% stimulation or inhibition)”.

What about the “Effect (%)” value [3] of the same compound?
Its value is “NS (NS = No significant response. Significance was taken as ≧30% stimulation or inhibition)”.

And the “Effect (%)” value [4]?
Its value is “NS (NS = No significant response. Significance was taken as ≧30% stimulation or inhibition)”.

What about the “Effect (%)” value [5] of the same compound?
The value was “NS (NS = No significant response. Significance was taken as ≧30% stimulation or inhibition)”.

And the “Effect (%)” value [6]?
The value was “NS (NS = No significant response. Significance was taken as ≧30% stimulation or inhibition)”.

And the “Effect (%)” value [7]?
Its value is “NS (NS = No significant response. Significance was taken as ≧30% stimulation or inhibition)”.

What about the “Effect (%)” value [8] of the same compound?
Its value is “NS (NS = No significant response. Significance was taken as ≧30% stimulation or inhibition)”.

And the “Effect (%)” value [9]?
Its value is “NS (NS = No significant response. Significance was taken as ≧30% stimulation or inhibition)”.

What about the “Effect (%)” value [10] of the same compound?
The value was “NS (NS = No significant response. Significance was taken as ≧30% stimulation or inhibition)”.

What about the “Effect (%)” value [11] of the same compound?
The value was “NS (NS = No significant response. Significance was taken as ≧30% stimulation or inhibition)”.

What about the “Effect (%)” value [12] of the same compound?
Its value is “NS (NS = No significant response. Significance was taken as ≧30% stimulation or inhibition)”.

What about the “Effect (%)” value [13] of the same compound?
The value was “NS (NS = No significant response. Significance was taken as ≧30% stimulation or inhibition)”.

And the “Effect (%)” value [14]?
The value was “NS (NS = No significant response. Significance was taken as ≧30% stimulation or inhibition)”.

What about the “Effect (%)” value [15] of the same compound?
Its value is “NS (NS = No significant response. Significance was taken as ≧30% stimulation or inhibition)”.

And the “Effect (%)” value [16]?
Its value is “NS (NS = No significant response. Significance was taken as ≧30% stimulation or inhibition)”.

And the “Effect (%)” value [17]?
The value was “NS (NS = No significant response. Significance was taken as ≧30% stimulation or inhibition)”.

And the “Effect (%)” value [18]?
The value was “NS (NS = No significant response. Significance was taken as ≧30% stimulation or inhibition)”.

What about the “Effect (%)” value [19] of the same compound?
Its value is “NS (NS = No significant response. Significance was taken as ≧30% stimulation or inhibition)”.

And the “Effect (%)” value [20]?
The value was “NS (NS = No significant response. Significance was taken as ≧30% stimulation or inhibition)”.

And the “Effect (%)” value [21]?
Its value is “NS (NS = No significant response. Significance was taken as ≧30% stimulation or inhibition)”.

And the “Effect (%)” value [22]?
The value was “NS (NS = No significant response. Significance was taken as ≧30% stimulation or inhibition)”.

What about the “Effect (%)” value [23] of the same compound?
Its value is “NS (NS = No significant response. Significance was taken as ≧30% stimulation or inhibition)”.

What about the “Effect (%)” value [24] of the same compound?
The value was “NS (NS = No significant response. Significance was taken as ≧30% stimulation or inhibition)”.

What about the “Effect (%)” value [25] of the same compound?
The value was “NS (NS = No significant response. Significance was taken as ≧30% stimulation or inhibition)”.

What about the “Effect (%)” value [26] of the same compound?
Its value is “NS (NS = No significant response. Significance was taken as ≧30% stimulation or inhibition)”.

And the “Effect (%)” value [27]?
Its value is “NS (NS = No significant response. Significance was taken as ≧30% stimulation or inhibition)”.

What about the “Effect (%)” value [28] of the same compound?
Its value is “NS (NS = No significant response. Significance was taken as ≧30% stimulation or inhibition)”.

And the “Effect (%)” value [29]?
Its value is “NS (NS = No significant response. Significance was taken as ≧30% stimulation or inhibition)”.

What about the “Effect (%)” value [30] of the same compound?
Its value is “NS (NS = No significant response. Significance was taken as ≧30% stimulation or inhibition)”.

And the “Effect (%)” value [31]?
The value was “NS (NS = No significant response. Significance was taken as ≧30% stimulation or inhibition)”.

And the “Effect (%)” value [32]?
Its value is “NS (NS = No significant response. Significance was taken as ≧30% stimulation or inhibition)”.

And the “Effect (%)” value [33]?
The value was “NS (NS = No significant response. Significance was taken as ≧30% stimulation or inhibition)”.

What about the “Effect (%)” value [34] of the same compound?
Its value is “NS (NS = No significant response. Significance was taken as ≧30% stimulation or inhibition)”.

What about the “Effect (%)” value [35] of the same compound?
The value was “NS (NS = No significant response. Significance was taken as ≧30% stimulation or inhibition)”.

What about the “Effect (%)” value [36] of the same compound?
The value was “NS (NS = No significant response. Significance was taken as ≧30% stimulation or inhibition)”.

What about the “Effect (%)” value [37] of the same compound?
Its value is “NS (NS = No significant response. Significance was taken as ≧30% stimulation or inhibition)”.

— patent US20120034193A1, “TREATMENT OF NEUROTROPHIC FACTOR MEDIATED DISORDERS” (priority 2009, published 2012)
